The values below come from patent US9334264B2, “NAMPT inhibitors” (AbbVie Inc., priority 2012, dated 2016).

By IC50 is commonly meant the concentration at which inhibition is half-maximal.

Molecules are shown by their SMILES.

Experiment [1] deals with collagen-induced arthritis. The following applies: cited from earlier work.
The next experiment has as its system activated T cells. The following applies: cited from earlier work.
Experiment [2] deals with experimental autoimmune encephalomyelitis (EAE). As to conditions: a model of T-cell mediated autoimmune disorders; cited from earlier work.
Another experiment addresses NAMPT (Homo sapiens, UniProt P43490). As to the kind of experiment: Time-Resolved Fluorescence Resonance Energy Transfer (TR-FRET) Binding Assay of NAMPT with PRPP. The following applies: 200 μM PRPP and 2.5 mM ATP; 2 nM NAMPT, 2 nM probe, equilibrated 16 hours. The procedure, abridged: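 Compounds were equilibrated for 16 hours before TR-FRET readout, with substrates present (200 μM PRPP, 2.5 mM ATP) to permit enzymatic modification. Final mix: 2 nM His-tagged NAMPT, 2 nM probe, 1 nM Tb-anti-His antibody, 2% DMSO.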
A general note: Time-resolved FRET reads energy transfer from a long-lived donor to a nearby acceptor.

For experiment [3], the target named is NAMPT (human, recombinant, C-terminally His-tagged) (Homo sapiens, UniProt P43490). Kind of experiment: Time-Resolved Fluorescence Resonance Energy Transfer (TR-FRET) Binding Assay of NAMPT. The following applies: absence of substrates; 6.8 nM NAMPT, 200 nM probe, equilibrated 3 hours. The procedure, abridged:
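Compounds (typically 11 half-log dilutions, 2% DMSO final) equilibrated 3 h at room temperature with 6.8 nM human C-His NAMPT, 1 nM Tb-anti-His antibody and 200 nM fluorescent competitive probe in pH 7.5 HEPES buffer. IC50 derived by logistic fit of normalized TR-FRET ratio (520/495 nm).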

Chain of NAMPT (human, recombinant, C-terminally His-tagged) (P43490 whole entry): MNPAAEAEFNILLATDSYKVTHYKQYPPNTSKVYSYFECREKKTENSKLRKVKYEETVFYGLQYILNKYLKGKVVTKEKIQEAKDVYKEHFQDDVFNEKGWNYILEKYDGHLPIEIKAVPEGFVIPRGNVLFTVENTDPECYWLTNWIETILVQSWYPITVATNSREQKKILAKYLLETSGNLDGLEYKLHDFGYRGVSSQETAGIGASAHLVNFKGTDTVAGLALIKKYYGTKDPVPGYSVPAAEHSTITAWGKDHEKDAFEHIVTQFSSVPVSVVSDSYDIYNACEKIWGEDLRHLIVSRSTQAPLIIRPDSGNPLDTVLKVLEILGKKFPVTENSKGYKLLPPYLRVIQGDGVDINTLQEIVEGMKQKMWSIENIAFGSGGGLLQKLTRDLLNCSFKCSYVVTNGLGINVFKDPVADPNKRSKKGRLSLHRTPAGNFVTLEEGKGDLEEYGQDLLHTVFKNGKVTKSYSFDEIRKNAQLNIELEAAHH
Chain of NAMPT (P43490 whole entry): as above

`O=C(/C=C/c1cccnc1)NCCCCC1CCN(C(=O)c2ccccc2)CC1` [FK866]: the “efficacy in animal models of arthritis” value in experiment [1] is “efficacious”. Further, in the experiment on activated T cells, the “apoptosis of activated T cells” value is recorded as “induce apoptosis” and the “proliferation of activated T cells” value is given as “selectively block proliferation”. Moreover, in experiment [2], the “manifestations of experimental autoimmune encephalomyelitis” value is recorded as “ameliorated the manifestations”.
Consider `N#Cc1ccc(CN(C(=O)CC2CCOCC2)c2ncc(C(=O)NCCCn3ccnc3)s2)cc1` [Example 51, 2-[(4-cyanobenzyl)(tetrahydro-2H-pyran-4-ylacetyl)amino]-N-[3-(1H-imidazol-1-yl)propyl]-1,3-thiazole-5-carboxamide], for which the results for the IC50 (at NAMPT; in experiment [3]) were 4.94 nM and above 10000 nM, respectively.
Taken in the same sequence, the figures for `CC(C)CNC(=O)N(Cc1ccc(F)cc1)c1ncc(C(=O)NCCCn2ccnc2)s1` [Example 64, 2-{(4-fluorobenzyl)[(2-methylpropyl)carbamoyl]amino}-N-[3-(1H-imidazol-1-yl)propyl]-1,3-thiazole-5-carboxamide] were 2.97 nM and 1850 nM.
Regarding `CC(C)OCCNC(=O)N(Cc1ccc(C#N)cc1)c1ncc(C(=O)NCCCn2ccnc2)s1` [Example 123, 2-[(4-cyanobenzyl){[2-(propan-2-yloxy)ethyl]carbamoyl}amino]-N-[3-(1H-imidazol-1-yl)propyl]-1,3-thiazole-5-carboxamide], the values for the IC50 (on NAMPT; in experiment [3]) were 0.631 nM and 3820 nM, respectively.
On the same counts, the results for `COCCN(C(=O)Cc1ccc2ccccc2c1)c1ncc(C(=O)NCCCn2ccnc2)s1` [Example 185, N-[3-(1H-imidazol-1-yl)propyl]-2-[(2-methoxyethyl)(naphthalen-2-ylacetyl)amino]-1,3-thiazole-5-carboxamide] are 0.476 nM and 633 nM.
On the same counts, the results for `O=C(NCCCn1ccnc1)c1cnc(N(Cc2ccc(F)cc2)C(=O)N2CCCOCC2)s1` [Example 73, N-(4-fluorobenzyl)-N-(5-{[3-(1H-imidazol-1-yl)propyl]carbamoyl}-1,3-thiazol-2-yl)-1,4-oxazepane-4-carboxamide] are 7.04 nM and above 10000 nM.
On the same counts, the results for `CCOCC(O)CNC(=O)N(Cc1ccc(C#N)cc1)c1ncc(C(=O)NCCCn2ccnc2)s1` (stereo not shown) [Example 143, 2-{(4-cyanobenzyl)[(3-ethoxy-2-hydroxypropyl)carbamoyl]amino}-N-[3-(1H-imidazol-1-yl)propyl]-1,3-thiazole-5-carboxamide] are 13.7 nM and above 10000 nM.
With `C=CCN(CC=C)CCN(C(=O)CCOC)c1ncc(C(=O)NCCCn2ccnc2)s1` [Example 189, 2-[{2-[di(prop-2-en-1-yl)amino]ethyl}(3-methoxypropanoyl)amino]-N-[3-(1H-imidazol-1-yl)propyl]-1,3-thiazole-5-carboxamide], the IC50 at NAMPT worked out at 0.586 nM; in experiment [3], 4700 nM.
With `CC(=O)NCC(C)CNC(=O)N(Cc1ccc(C#N)cc1)c1ncc(C(=O)NCCCn2ccnc2)s1` (stereo not shown) [Example 141, 2-[{[3-(acetylamino)-2-methylpropyl]carbamoyl}(4-cyanobenzyl)amino]-N-[3-(1H-imidazol-1-yl)propyl]-1,3-thiazole-5-carboxamide], the IC50 at NAMPT was 23.1 nM; in experiment [3], above 10000 nM.
Taken in the same sequence, the figures for `O=C(NCCCn1ccnc1)c1cnc(N(Cc2ccc(F)cc2)C(=O)CN2CC=CCC2)s1` [Example 27, 2-[(3,6-dihydropyridin-1(2H)-ylacetyl)(4-fluorobenzyl)amino]-N-[3-(1H-imidazol-1-yl)propyl]-1,3-thiazole-5-carboxamide] were 0.632 nM and above 10000 nM.
Taken in the same sequence, the figures for `CC(C)CCN(C(=O)C(C)c1ccccc1)c1ncc(C(=O)NCCCn2ccnc2)s1` (stereo not shown) [Example 138, N-[3-(1H-imidazol-1-yl)propyl]-2-[(3-methylbutyl)(2-phenylpropanoyl)amino]-1,3-thiazole-5-carboxamide] were 0.541 nM and 55.5 nM.
Taken in the same sequence, the figures for `COCCC(=O)N(Cc1c(F)cccc1F)c1ncc(C(=O)NCCCn2ccnc2)s1` [Example 112, 2-[(2,6-difluorobenzyl)(3-methoxypropanoyl)amino]-N-[3-(1H-imidazol-1-yl)propyl]-1,3-thiazole-5-carboxamide] were 2.08 nM and 3680 nM.
Turning to `COCCC(=O)N(CCc1cccc(F)c1)c1ncc(C(=O)NCCCn2ccnc2)s1` [Example 104, 2-{[2-(3-fluorophenyl)ethyl](3-methoxypropanoyl)amino}-N-[3-(1H-imidazol-1-yl)propyl]-1,3-thiazole-5-carboxamide acetate (1:1)], the IC50 at NAMPT came out at 1.31 nM; in experiment [3], 445 nM.
For the compound `COCCC(=O)N(Cc1ccc(Cl)cc1)c1ncc(C(=O)NCCCn2ccnc2)s1` [Example 114, 2-[(4-chlorobenzyl)(3-methoxypropanoyl)amino]-N-[3-(1H-imidazol-1-yl)propyl]-1,3-thiazole-5-carboxamide], the IC50 at NAMPT came to 2.31 nM; in experiment [3], 1990 nM.
Taken in the same sequence, the figures for `COCCC(=O)N(c1ncc(C(=O)NCCCn2ccnc2)s1)C(C)c1ccccn1` (stereo not shown) [Example 110, N-[3-(1H-imidazol-1-yl)propyl]-2-{(3-methoxypropanoyl)[1-(pyridin-2-yl)ethyl]amino}-1,3-thiazole-5-carboxamide] were 23.2 nM and above 10000 nM.
On to `O=C(NCCCn1ccnc1)c1cnc(N(CCCN2CCOCC2)Cc2ccc(F)cc2)s1` [Example 7, 2-{(4-fluorobenzyl)[3-(morpholin-4-yl)propyl]amino}-N-[3-(1H-imidazol-1-yl)propyl]-1,3-thiazole-5-carboxamide], for which the IC50 on NAMPT was found to be 486 nM; in experiment [3], 1610 nM.
On the same counts, the results for `CC(C)CCN(Cc1cccc(Cl)c1)c1ncc(C(=O)NCCCn2ccnc2)s1` [Example 58, 2-[(3-chlorobenzyl)(3-methylbutyl)amino]-N-[3-(1H-imidazol-1-yl)propyl]-1,3-thiazole-5-carboxamide] are 807 nM and 1720 nM.
On the same counts, the results for `CC(C)OCCNC(=O)N(CCc1ccc(Cl)cn1)c1ncc(C(=O)NCCCn2ccnc2)s1` [Example 210, 2-([2-(5-chloropyridin-2-yl)ethyl]{[2-(propan-2-yloxy)ethyl]carbamoyl}amino)-N-[3-(1H-imidazol-1-yl)propyl]-1,3-thiazole-5-carboxamide] are 0.192 nM and 2740 nM.
Taken in the same sequence, the figures for `C=CCN1CCN(CC(=O)N(Cc2ccc(F)cc2)c2ncc(C(=O)NCCCn3ccnc3)s2)CC1` [Example 37, 2-[(4-fluorobenzyl){[4-(prop-2-en-1-yl)piperazin-1-yl]acetyl}amino]-N-[3-(1H-imidazol-1-yl)propyl]-1,3-thiazole-5-carboxamide] were 0.531 nM and 4810 nM.
As to `COCC(=O)N(CCC(C)C)c1ncc(C(=O)NCCCn2ccnc2)s1` [Example 151, N-[3-(1H-imidazol-1-yl)propyl]-2-[(methoxyacetyl)(3-methylbutyl)amino]-1,3-thiazole-5-carboxamide], the IC50 on NAMPT was 0.412 nM; in experiment [3] it was 219 nM.
Taken in the same sequence, the figures for `COCCC(=O)N(CC(=O)N1CCCC1)c1ncc(C(=O)NCCCn2ccnc2)s1` [Example 202, N-[3-(1H-imidazol-1-yl)propyl]-2-{(3-methoxypropanoyl)[2-oxo-2-(pyrrolidin-1-yl)ethyl]amino}-1,3-thiazole-5-carboxamide] were 0.405 nM and 4990 nM.
With `O=CN1CCN(CC(=O)N(Cc2ccc(F)cc2)c2ncc(C(=O)NCCCn3ccnc3)s2)CC1` [Example 32, 2-{(4-fluorobenzyl)[(4-formylpiperazin-1-yl)acetyl]amino}-N-[3-(1H-imidazol-1-yl)propyl]-1,3-thiazole-5-carboxamide], the IC50 was 1.33 nM at NAMPT and above 10000 nM in experiment [3].
Taken in the same sequence, the figures for `CCN(CC)CCNC(=O)N(Cc1ccc(C#N)cc1)c1ncc(C(=O)NCCCn2ccnc2)s1` [Example 146, 2-[(4-cyanobenzyl){[2-(diethylamino)ethyl]carbamoyl}amino]-N-[3-(1H-imidazol-1-yl)propyl]-1,3-thiazole-5-carboxamide] were 98 nM and above 10000 nM.
Taken in the same sequence, the figures for `COCCC(=O)N(CCC(C)C)c1ncc(C(=O)NCCCn2ccnc2)s1` [Example 150, N-[3-(1H-imidazol-1-yl)propyl]-2-[(3-methoxypropanoyl)(3-methylbutyl)amino]-1,3-thiazole-5-carboxamide] were 0.21 nM and 252 nM.
Taken in the same sequence, the figures for `O=C(NCCCn1ccnc1)c1cnc(N(Cc2ccc(F)cc2)C(=O)N2CC(O)C2)s1` [Example 66, 2-{(4-fluorobenzyl)[(3-hydroxyazetidin-1-yl)carbonyl]amino}-N-[3-(1H-imidazol-1-yl)propyl]-1,3-thiazole-5-carboxamide] were 2.42 nM and above 10000 nM.
